The record followed here is patent US9850183B2, “Conjugates derived from non-steroidal anti-inflammatory drugs and methods of use thereof in imaging” (Reiley Pharmaceuticals, Inc., priority 2014, dated 2017).

In one experiment the target is T1, human COX-2 (Homo sapiens, UniProt P35354).
T1 construct: purchased Cayman Chemical Co., Ann Arbor, Mich., USA 701080
T1 sequence (P35354 18-604): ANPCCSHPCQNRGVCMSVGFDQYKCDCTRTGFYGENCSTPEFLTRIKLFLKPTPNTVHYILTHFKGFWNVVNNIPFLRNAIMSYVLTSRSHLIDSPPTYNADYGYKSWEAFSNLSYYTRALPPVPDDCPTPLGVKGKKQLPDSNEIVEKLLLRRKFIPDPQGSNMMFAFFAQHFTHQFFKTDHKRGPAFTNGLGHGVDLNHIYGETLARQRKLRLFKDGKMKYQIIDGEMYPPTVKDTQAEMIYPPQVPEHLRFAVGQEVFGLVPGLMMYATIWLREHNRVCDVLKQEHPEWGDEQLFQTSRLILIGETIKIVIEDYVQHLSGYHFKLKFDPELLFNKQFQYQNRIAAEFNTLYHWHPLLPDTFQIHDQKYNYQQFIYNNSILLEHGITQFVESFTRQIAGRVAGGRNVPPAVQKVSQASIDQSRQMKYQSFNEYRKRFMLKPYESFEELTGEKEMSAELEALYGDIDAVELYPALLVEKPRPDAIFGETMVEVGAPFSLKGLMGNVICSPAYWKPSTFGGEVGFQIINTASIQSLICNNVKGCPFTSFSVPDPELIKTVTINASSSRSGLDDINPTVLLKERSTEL
The experiment in a line: COX-2 enzyme assay (EIA kit, PGF2α readout). Format: biochemical. The conditions noted are these: for IC50: human COX-2 enzyme, EIA, 15 min pre-incubation at 37° C., read-out: COX-2 IC50 (μM) enzyme. Here is the method:
(§1) The ability of compounds to inhibit ovine COX-1 and human COX-2 was determined using a commercially available enzyme immunoassay (EIA) kit (catalog no. 701090 (COX-1); 701080 (COX-2) Cayman Chemical Co., Ann Arbor, Mich., USA) according to the manufacturer's protocol. COX catalyzes the first step in the biosynthesis of AA to PGH2. PGF2α, produced from PGH2 by reduction with stannous chloride, was measured by EIA (ACE™ competitive EIA, Cayman Chemical, Ann Arbor, Mich., USA). Briefly, to a series of supplied reaction buffer solutions [960 μl 0.1 M Tris-HCl (pH 8.0) containing 5 mM EDTA and 2 mM phenol] with either COX-1 or COX-2 (10 μl) enzyme in the presence of heme (10 μl), 10 μl of various concentrations of test drug solutions were added. These solutions were incubated for 15 min at 37° C. and subsequently 10 μl AA solution (100 μM) was added. The COX reaction was stopped by the addition of 30 μl stannus chloride after 2 min, mixed immediately, supernatants were 2000 fold diluted. The produced PGF2α was measured by EIA. This assay is based on the competition between PGs and a PG-acetylcholinesterase conjugate (PG tracer) for a limited amount of PG antiserum. The amount of PG tracer that is able to bind to the PG antiserum is inversely proportional to the concentration of PGs in the wells since the concentration of the PG tracer is held at a constant while the concentration of PGs varies. The specific antiserum-PG complex bound to a mouse anti-rabbit IgG that had been previously attached to the well. The plate was washed to remove any unbound reagents and 200 μl Ellman's reagent (5,5′-dithiobis-(2-nitrobenzoic acid), which contains the substrate to acetylcholine esterase, was added to the well. The product of this enzymatic reaction generates a distinct yellow color that absorbs at 406 nm. The intensity of this color, determined by spectrophotometry, is proportional to the amount of PG tracer bound to the well, which is inversely proportional to the amount of PGs present in the well during the incubation. Percent inhibition was calculated by the comparison of the compounds treated to the various control incubations.
(§2) Dose-response curves were generated using XLFit (IDBS, Surrey, UK) or Prism (GraphPad Software, La Jolla, Calif., US) to calculate IC50 values for each compound tested.

In a further experiment the target is T2, COX-2 (Mus musculus, UniProt Q05769).
T2 construct: endogenous in cells; host or cells: RAW264.7 murine macrophages, stimulated with LPS and IFN-g
T2 sequence (Q05769 18-604): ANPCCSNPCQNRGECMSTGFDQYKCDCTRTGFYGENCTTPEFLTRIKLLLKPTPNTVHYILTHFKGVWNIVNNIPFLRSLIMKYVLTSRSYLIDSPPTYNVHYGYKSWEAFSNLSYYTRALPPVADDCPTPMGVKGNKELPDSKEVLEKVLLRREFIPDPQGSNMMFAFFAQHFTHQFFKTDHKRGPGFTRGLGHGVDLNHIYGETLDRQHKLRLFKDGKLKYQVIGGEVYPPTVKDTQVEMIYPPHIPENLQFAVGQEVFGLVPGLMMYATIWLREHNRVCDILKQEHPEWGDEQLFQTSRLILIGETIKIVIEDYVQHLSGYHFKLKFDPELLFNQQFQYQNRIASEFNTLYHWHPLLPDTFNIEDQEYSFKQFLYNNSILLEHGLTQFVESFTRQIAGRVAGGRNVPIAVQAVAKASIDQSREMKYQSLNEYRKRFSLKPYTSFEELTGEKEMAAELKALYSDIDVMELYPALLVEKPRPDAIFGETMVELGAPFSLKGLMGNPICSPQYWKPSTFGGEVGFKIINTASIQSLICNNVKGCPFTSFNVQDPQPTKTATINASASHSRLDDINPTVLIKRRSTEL
Description: Cell-based COX-2 assay (PGE2 in LPS/IFN-g stimulated RAW264.7 cells). The conditions noted are these: RAW264.7 murine macrophages, 1 μg/ml LPS and 10 U/ml IFN-g for 7 h, PGE2 readout. Here is the method:
RAW264.7 murine macrophages were obtained from the Cell Bank of Shanghai Institute of Biochemistry and Cell Biology, Chinese Academy of Sciences (Shanghai, China) and cultured in Dulbecco's modified Eagle's medium containing 100 U/ml penicillin and 100 μg/ml streptomycin at 37° C. in 5% CO2.
RAW264.7 cells were plated at a density of 2.5×10^5/ml cells in a 96-well plate with 0.1 ml of culture medium per well and cultured overnight. The cells were pre-incubated for 30 min with various doses of compounds and stimulated for 7 h with 1 μg/ml LPS and 10 U/ml IFN-g. The cell culture supernatants were collected immediately following treatment and centrifuged at 1,000 rpm for 5 min to remove the particulate matter. PGE2 was determined using a Prostaglandin E2 assay kit (catalog no. 62P2APEB; Cisbio Co.,). 10 μL of cell supernatant was transferred to a 384-well low volume plate (e.g. Corning® 3544), 5 μL of PGE2-d2 was added, followed by 5 μL anti-PGE2 Cryptate as a negative control. Replace the standard by 10 μL of diluent and PGE2-d2 by 5 μL of reconstitution buffer, Cal0 (for positive control), replace the standard by 10 μL of diluent. Incubate at 4° C. overnight. After centrifuging at 1,000 rpm for 1 min, the dual fluorescence emissions of 615 and 665 nm with a 320 nm excitation were measured using an Envision plate reader (Perkin Elmer, Shelton, Conn.). The results are expressed as the ratio of 665 nm/615 nm emissions.
as §2

The next experiment concerns the target T3, ovine COX-1 (Ovis aries, UniProt P05979).
T3 sequence (P05979 25-600): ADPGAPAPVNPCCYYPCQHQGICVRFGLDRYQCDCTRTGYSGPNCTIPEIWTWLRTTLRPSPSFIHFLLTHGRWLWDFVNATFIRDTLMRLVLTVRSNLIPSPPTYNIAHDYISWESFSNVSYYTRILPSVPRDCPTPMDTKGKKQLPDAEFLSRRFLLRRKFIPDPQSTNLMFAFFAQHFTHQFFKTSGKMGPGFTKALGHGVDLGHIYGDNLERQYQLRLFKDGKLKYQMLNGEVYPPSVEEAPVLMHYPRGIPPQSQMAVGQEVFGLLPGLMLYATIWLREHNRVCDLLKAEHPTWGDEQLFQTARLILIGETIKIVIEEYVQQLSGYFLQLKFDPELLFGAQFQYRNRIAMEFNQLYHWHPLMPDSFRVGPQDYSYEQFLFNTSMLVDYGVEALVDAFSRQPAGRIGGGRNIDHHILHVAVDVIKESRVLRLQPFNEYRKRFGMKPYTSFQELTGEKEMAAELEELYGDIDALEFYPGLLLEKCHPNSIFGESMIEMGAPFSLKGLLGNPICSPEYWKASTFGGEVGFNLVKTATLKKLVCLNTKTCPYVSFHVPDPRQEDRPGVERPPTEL
The experiment in a line: biochemical. The conditions noted are these: ovine COX-1 enzyme, EIA; read-out: COX-1 IC50 (μm) enzyme. Here is the method:
as §1, §2

pIC50: −log10 of the molar value. Like-named read-outs stand apart in the source and are kept apart here. Some results are limits rather than exact numbers.

For `COc1ccc2c(c1)c(CC(=O)NCCCCCCNC(=O)[c-]1cccc1)c(C)n2C(=O)c1ccc(Cl)cc1.[C-]#[O+].[C-]#[O+].[C-]#[O+].[Re+]` [Compound 242], the IC50 came out at 0.3 µM on human COX-2 and 0.4 µM on COX-2. Further, on ovine COX-1, the pIC50 is under 4.52.

For `COc1ccc2c(c1)c(CC(=O)NCCCOCCC[N+]13CC[S][Re-]14(=[O])[S]CC[N]4C(=O)C3)c(C)n2C(=O)c1ccc(Cl)cc1` (stereo not drawn) [Compound 266], the half-maximal inhibitory concentration (IC50) on human COX-2 worked out at 0.6 µM; at COX-2 it was 0.2 µM.

Consider `COc1ccc2c(c1)c(CC(=O)NCCCOCC[N+]13CC[S][Re-]14(=[O])[S]CC[N]4C(=O)C3)c(C)n2C(=O)c1ccc(Cl)cc1` (stereo not drawn) [Compound 267], for which the values for the IC50 at human COX-2 and at COX-2 were over 30 µM and 0.3 µM, respectively.

Regarding `COc1ccc2c(c1)c(CC(=O)NCCCS(=O)(=O)CCC[N+]13CC[S][Re-]14(=[O])[S]CC[N]4C(=O)C3)c(C)n2C(=O)c1ccc(Cl)cc1` (stereo not drawn) [Compound 268], the values for the concentration for half-maximal inhibition (IC50) on human COX-2 and against COX-2 were over 30 µM and over 10 µM, respectively.

For `COc1ccc2c(c1)c(CC(=O)NCCOCCOCC[N+]13CC[S][Re-]14(=[O])[S]CC[N]4C(=O)C3)c(C)n2C(=O)c1ccc(Cl)cc1` (stereo not drawn) [Compound 269], the concentration for half-maximal inhibition (IC50) at human COX-2 amounted to 0.5 µM; against COX-2 it was 0.9 µM.

As to `COc1ccc2c(c1)c(CC(=O)NCCC(C)(C)CC[N+]13CC[S][Re-]14(=[O])[S]CC[N]4CC3)c(C)n2C(=O)c1ccc(Cl)cc1` (stereo not drawn) [Compound 307], the half-inhibitory concentration (IC50) on human COX-2 was over 30 µM; on COX-2 it was 0.5 µM.

For `COc1ccc2c(c1)c(CC(=O)NCCCCCNC(=O)c1ccc[cH-]1)c(C)n2C(=O)c1ccc(Cl)cc1.[C-]#[O+].[C-]#[O+].[C-]#[O+].[Re+]` [Compound 308], the IC50 at human COX-2 is 0.9 µM; against COX-2, 0.2 µM.

`COc1ccc2c(c1)c(CC(=O)NCCC(C)(C)CCNC(=O)c1ccc[cH-]1)c(C)n2C(=O)c1ccc(Cl)cc1.[C-]#[O+].[C-]#[O+].[C-]#[O+].[Re+]` [Compound 309]: the 50% inhibitory concentration (IC50) on human COX-2 came to 0.5 µM; against COX-2, 0.3 µM.

Consider `COc1ccc2c(c1)c(CC(=O)NCCCOCCCNC(=O)c1ccc[cH-]1)c(C)n2C(=O)c1ccc(Cl)cc1.[C-]#[O+].[C-]#[O+].[C-]#[O+].[Re+]` [Compound 310], for which the results for the half-inhibitory concentration (IC50) on human COX-2 and at COX-2 were over 30 µM and 0.2 µM, respectively.

For the molecule `COc1ccc2c(c1)c(CC(=O)NCCCCC(C)(C)NC(=O)c1ccc[cH-]1)c(C)n2C(=O)c1ccc(Cl)cc1.[C-]#[O+].[C-]#[O+].[C-]#[O+].[Re+]` [Compound 312], the IC50 was 0.1 µM at human COX-2 and 0.4 µM on COX-2.

With `COc1ccc2c(c1)c(CC(=O)N[C@H](C)CCCCC[N+]13CC[S][Re-]14(=[O])[S]CC[N]4C(=O)C3)c(C)n2C(=O)c1ccc(Cl)cc1` (stereo partly drawn) [Compound 328], the IC50 on human COX-2 came out at 0.6 µM; on COX-2, 0.1 µM.

With `COc1ccc2c(c1)c(CC(=O)NCCC=CCC[N+]13CC[S][Re-]14(=[O])[S]CC[N]4C(=O)C3)c(C)n2C(=O)c1ccc(Cl)cc1` (stereo not drawn) [Compound 341], the values for the IC50 on human COX-2 and against COX-2 were 0.8 µM and 0.3 µM, respectively.

`[2H]C([2H])([2H])Oc1ccc2c(c1)c(CC(=O)NCCCCCC[N+]13CC[S][Re-]14(=[O])[S]CC[N]4C(=O)C3)c(C)n2C(=O)c1ccc(Cl)cc1` (stereo not drawn) [Compound 346]: the 50% inhibitory concentration (IC50) on human COX-2 turned out to be 0.3 µM; against COX-2, 0.2 µM.

Consider `COc1ccc2c(c1)c(CC(=O)NCCCCCC[N+]13CC[S][Re-]14(=[O])[S]CC[N]4C(=O)C3)c(C(F)(F)F)n2C(=O)c1ccc(Cl)cc1` (stereo not drawn) [Compound 351], for which the half-maximal inhibitory concentration (IC50) at human COX-2 is over 30 µM; at COX-2, 0.4 µM.

For the molecule `COc1ccc2c(c1)c(CCNC(=O)CCCCC[N+]13CC[S][Re-]14(=[O])[S]CC[N]4C(=O)C3)c(C)n2C(=O)c1ccc(Cl)cc1` (stereo not drawn) [Compound 359], the IC50 on human COX-2 turned out to be 0.6 µM; on COX-2, 0.2 µM.

With `NS(=O)(=O)c1ccc(-n2nc(CNC(=O)c3ccc[cH-]3)cc2-c2ccc(F)cc2)cc1.[C-]#[O+].[C-]#[O+].[C-]#[O+].[Re+]` [Compound 365], the IC50 at human COX-2 is 7.9 µM; against COX-2, 1.1 µM.

As to `NS(=O)(=O)c1ccc(-n2nc(CNC(=O)CCCCC[N+]34CC[S][Re-]35(=[O])[S]CC[N]5C(=O)C4)cc2-c2ccc(F)cc2)cc1` (stereo not drawn) [Compound 367], on human COX-2, the pIC50 is 5.35. The IC50 against COX-2 was over 10 µM.

For the molecule `COc1ccc2c(c1)c(CCNCc1ccccn1)c(C)n2C(=O)c1ccc(Cl)cc1` [Compound 369], the pIC50 at ovine COX-1 was under 4.52.
